± gives the expanded uncertainty stated by the source.
Assays:
[1] = molar heat capacity at constant pressure; details: 101 kPa, Liquid, Small sample (50 mg) DSC
[2] = 101.33 kPa, Liquid; for speed of sound: Pulse-echo method; for mass density: Pycnometric method

CCCCCCCCCCO [decan-1-ol]
molar heat capacity at constant pressure ([1]; 290.91 K): 364.49 ± 5.7 J/K/mol
molar heat capacity at constant pressure ([1]; 291.15 K): 364.8 ± 5.7 J/K/mol
molar heat capacity at constant pressure ([1]; 292.15 K): 366.05 ± 5.7 J/K/mol
molar heat capacity at constant pressure ([1]; 293.15 K): 367.19 ± 5.7 J/K/mol
molar heat capacity at constant pressure ([1]; 294.15 K): 368.25 ± 5.7 J/K/mol
molar heat capacity at constant pressure ([1]; 295.15 K): 369.35 ± 5.7 J/K/mol
molar heat capacity at constant pressure ([1]; 296.15 K): 370.35 ± 5.7 J/K/mol
molar heat capacity at constant pressure ([1]; 297.15 K): 371.6 ± 5.8 J/K/mol
molar heat capacity at constant pressure ([1]; 298.15 K): 372.77 ± 5.8 J/K/mol
molar heat capacity at constant pressure ([1]; 299.15 K): 373.71 ± 5.8 J/K/mol
molar heat capacity at constant pressure ([1]; 300.15 K): 374.91 ± 5.8 J/K/mol
molar heat capacity at constant pressure ([1]; 301.15 K): 375.89 ± 5.8 J/K/mol
molar heat capacity at constant pressure ([1]; 302.15 K): 377.05 ± 5.8 J/K/mol
molar heat capacity at constant pressure ([1]; 303.15 K): 378.2 ± 5.9 J/K/mol
molar heat capacity at constant pressure ([1]; 304.15 K): 379.47 ± 5.9 J/K/mol
molar heat capacity at constant pressure ([1]; 305.15 K): 380.58 ± 5.9 J/K/mol
molar heat capacity at constant pressure ([1]; 306.15 K): 381.75 ± 5.9 J/K/mol
molar heat capacity at constant pressure ([1]; 307.15 K): 382.43 ± 5.9 J/K/mol
molar heat capacity at constant pressure ([1]; 308.15 K): 384.6 ± 6 J/K/mol
molar heat capacity at constant pressure ([1]; 309.15 K): 385.42 ± 6 J/K/mol
molar heat capacity at constant pressure ([1]; 310.15 K): 386.61 ± 6 J/K/mol
molar heat capacity at constant pressure ([1]; 311.15 K): 387.89 ± 6 J/K/mol
molar heat capacity at constant pressure ([1]; 312.15 K): 389.03 ± 6 J/K/mol
molar heat capacity at constant pressure ([1]; 313.15 K): 390.28 ± 6 J/K/mol
molar heat capacity at constant pressure ([1]; 314.15 K): 391.58 ± 6.1 J/K/mol
molar heat capacity at constant pressure ([1]; 315.15 K): 392.8 ± 6.1 J/K/mol
molar heat capacity at constant pressure ([1]; 316.15 K): 394.11 ± 6.1 J/K/mol
molar heat capacity at constant pressure ([1]; 317.15 K): 395.3 ± 6.1 J/K/mol
molar heat capacity at constant pressure ([1]; 318.15 K): 396.66 ± 6.2 J/K/mol
molar heat capacity at constant pressure ([1]; 318.39 K): 396.93 ± 6.2 J/K/mol
speed of sound ([2]; 293.1 K): 1397.2 ± 1.6 m/s
mass density ([2]; 293.15 K): 829.77 ± 0.67 kg/m3
speed of sound ([2]; 298.07 K): 1380 ± 1.6 m/s
mass density ([2]; 298.15 K): 826.38 ± 0.67 kg/m3
speed of sound ([2]; 303.04 K): 1362.8 ± 1.6 m/s
mass density ([2]; 303.15 K): 822.98 ± 0.67 kg/m3
speed of sound ([2]; 308.04 K): 1345.8 ± 1.6 m/s
mass density ([2]; 308.15 K): 819.62 ± 0.67 kg/m3
speed of sound ([2]; 313.01 K): 1329 ± 1.6 m/s
mass density ([2]; 313.15 K): 816.15 ± 0.68 kg/m3
mass density ([2]; 318.15 K): 812.67 ± 0.68 kg/m3
speed of sound ([2]; 318.18 K): 1311.7 ± 1.6 m/s

CCCCCCC [heptane]
speed of sound ([2]; 293.13 K): 1151.9 ± 1.2 m/s
mass density ([2]; 293.15 K): 683.81 ± 0.62 kg/m3
speed of sound ([2]; 298.12 K): 1130.3 ± 1.2 m/s
mass density ([2]; 298.15 K): 679.6 ± 0.62 kg/m3
speed of sound ([2]; 303.1 K): 1108.8 ± 1.2 m/s
mass density ([2]; 303.15 K): 675.38 ± 0.63 kg/m3
speed of sound ([2]; 308.07 K): 1087.5 ± 1.2 m/s
mass density ([2]; 308.15 K): 671.05 ± 0.64 kg/m3
speed of sound ([2]; 313.03 K): 1066.3 ± 1.2 m/s
mass density ([2]; 313.15 K): 666.78 ± 0.64 kg/m3
mass density ([2]; 318.15 K): 662.42 ± 0.65 kg/m3
speed of sound ([2]; 318.33 K): 1043.9 ± 1.2 m/s

Reference: the NIST ThermoML archive (doi:10.1016/j.jct.2005.10.009)
